# Reference: US20090118253A1, “COMPOSITIONS AND METHODS FOR TREATING DYSFUNCTIONAL UTERINE BLEEDING” (REPROS THERAPEUTICS INC., priority 2007, published 2009)
# Key:
# Serum cortisol in rats = format: in vivo, rat; conditions: 10 mg/kg, 21 days of chronic dosing
# Experimental: These higher levels were in the range of 3-4 ug/dl (30-40 ng/ml).
# [1] = target: T1, glucocorticoid receptor (rbGR) (Oryctolagus cuniculus, UniProt P59667); assay: Glucocorticoid receptor binding / anti-glucocorticoid receptor activity; set-up: species or system rabbit
# T1 construct: cytosol containing PR or GR were prepared in TEGMD buffer; from tissue; host or cells: thymus of estradiol-primed immature rabbits (cytosol)
# T1 sequence (P59667 1-772): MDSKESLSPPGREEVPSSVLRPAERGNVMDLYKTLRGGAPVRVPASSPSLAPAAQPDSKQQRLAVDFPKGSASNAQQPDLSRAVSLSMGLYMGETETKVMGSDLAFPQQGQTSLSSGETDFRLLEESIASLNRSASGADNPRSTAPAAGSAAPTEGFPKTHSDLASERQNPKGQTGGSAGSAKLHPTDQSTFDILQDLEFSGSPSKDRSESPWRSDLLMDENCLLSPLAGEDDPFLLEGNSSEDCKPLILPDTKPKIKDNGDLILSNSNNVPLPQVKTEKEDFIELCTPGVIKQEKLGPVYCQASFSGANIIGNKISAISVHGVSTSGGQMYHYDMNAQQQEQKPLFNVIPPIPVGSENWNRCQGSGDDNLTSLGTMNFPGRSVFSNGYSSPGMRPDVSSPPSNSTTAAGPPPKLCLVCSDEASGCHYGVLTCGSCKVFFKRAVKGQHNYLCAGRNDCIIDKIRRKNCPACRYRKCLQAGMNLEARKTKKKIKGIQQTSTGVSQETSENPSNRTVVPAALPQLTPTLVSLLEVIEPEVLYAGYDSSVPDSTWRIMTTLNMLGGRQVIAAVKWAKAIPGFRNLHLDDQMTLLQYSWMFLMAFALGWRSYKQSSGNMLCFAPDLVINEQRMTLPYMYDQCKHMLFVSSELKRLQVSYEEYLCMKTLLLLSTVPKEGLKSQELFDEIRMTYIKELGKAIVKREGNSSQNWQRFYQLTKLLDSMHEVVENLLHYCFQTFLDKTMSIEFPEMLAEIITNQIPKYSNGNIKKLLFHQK
# Experimental: Certain antiprogestins were tested in receptor-binding assays for their ability to bind rabbit progesterone receptor (rbPR) and glucocorticoid receptor (rbGR). […] For PR binding, the cytosol was incubated with 6 nM 1,2-[^3H]progesterone (50.0 Ci/mmole) and competitors were added at concentrations from 2 to 100 nM. For binding to GR, the cytosol was incubated with 6 nM 6,7-[^3H]-dexamethasone (40 Ci/mmol) and test compounds were added at concentrations from 20 to 100 nM. After overnight incubation at 4 C, bound and unbound [^3H] steroids were separated by addition of dextran-coated charcoal and centrifugation at 2100×g for 15 min at 4 C. Supernatants containing the [3H]-steroid receptor complexes were decanted into vials containing 4 ml Optifluor (Packard Instrument Co.), vortexed, equilibrated in a liquid scintillation counter for 30 minutes and then counted for 2 minutes. […] The standards for the PR and GR assays were unlabeled progesterone and dexamethasone, respectively.
# [2] = test system: progesterone-induced endometrial glandular proliferation in rabbit uterus; assay: anti-McGinty and anti-Clauberg assays in the rabbit uterus; format: in vivo; conditions: for rabbit Biol. Act.: average of anti-McGinty and anti-Clauberg results relative to CDB-2914 (=1.00)
# Description: Also given in Table 1 are the relative biological activities of the same compounds in the rabbit uterus by the anti-McGinty and anti-Clauberg assays. Compound CDB-2914 (listed at the end of the Table) was used as the control or reference compound (rabbit Biological Activity=1.00) for these experiments because results of experiments using CDB-2914 have been published before (Hild-Petito et al., 1996; Passaro et al., 1997; Reel et al., 1998; Lamer et al., 2000). For the anti-McGinty test, immature female rabbits received a subcutaneous injection of 5 μg estradiol in 10% ethanol/sesame oil daily for 6 consecutive days. On day 7, animals underwent sterile abdominal surgery to ligate a 3-4 cm segment of both uterine horns. The test compound in appropriate solvent was injected intraluminally into the ligated segment of one uterine horn and vehicle alone into the other. A stimulating dose of progesterone (267 μg/day) was administered subcutaneously to each rabbit daily for the next three days to induce endometrial proliferation. All animals were sacrificed at day 10 for removal of the uterus where a segment central to the ligatures was removed and fixed in 10% neutral buffered formalin and submitted for histological processing. Five micron sections stained with hematoxylin and cosin were evaluated microscopically for the degree of endometrial glandular proliferation. The percent inhibition of endometrial proliferation for each rabbit was calculated and the mean of the group of five animals recorded. For the Anti-Clauberg test, immature female rabbits received a subcutaneous injection of 5 μg estradiol in 10% ethanol/sesame oil daily for 6 consecutive days. On day 7, animals received progesterone by subcutaneous injection (160 μg/day) and the experimental compound in appropriate vehicle orally or subcutaneously for five consecutive days. One group of rabbits received progesterone only. Twenty-four hours after the last dose, all animals were sacrificed for removal of the uterus which was cleaned of all fat and connective tissue, weighed to the nearest 0.2 mg and placed in 10% neutral buffered formalin for subsequent histological processing. Five micron sections stained with hematoxylin and eosin were evaluated microscopically for the degree of endometrial glandular proliferation. The percent inhibition of endometrial proliferation at each dose level of the test compound was derived by comparison with progesterone-stimulated animals alone. The data presented in Table 1 (rabbit Biol. Act.) reflects the average of the results obtained for each compound by the anti-McGinty and anti-Clauberg assays relative to CDB-2914.
# [3] = test system: rabbit progesterone receptor (rbPR) and glucocorticoid receptor (rbGR); assay: Receptor-binding assays, ratio of relative binding affinities rbPR/rbGR; conditions: ratio of relative binding affinities (RBA = EC50 of standard/EC50 of test compound x 100) for rbPR and rbGR
# Experimental: Certain antiprogestins were tested in receptor-binding assays for their ability to bind rabbit progesterone receptor (rbPR) and glucocorticoid receptor (rbGR). Briefly, cytosol containing PR or GR were prepared in TEGMD buffer (10 mM Tris, pH 7.2, 1.5 mM EDTA, 0.2 mM sodium molybdate, 10% glycerol, 1 mM DTT) from uterus or thymus, respectively, of estradiol-primed immature rabbits. For PR binding, the cytosol was incubated with 6 nM 1,2-[^3H]progesterone (50.0 Ci/mmole) and competitors were added at concentrations from 2 to 100 nM. For binding to GR, the cytosol was incubated with 6 nM 6,7-[^3H]-dexamethasone (40 Ci/mmol) and test compounds were added at concentrations from 20 to 100 nM. After overnight incubation at 4 C, bound and unbound [^3H] steroids were separated by addition of dextran-coated charcoal and centrifugation at 2100×g for 15 min at 4 C. Supernatants containing the [3H]-steroid receptor complexes were decanted into vials containing 4 ml Optifluor (Packard Instrument Co.), vortexed, equilibrated in a liquid scintillation counter for 30 minutes and then counted for 2 minutes. The EC50 (Effective Concentration) for each standard curve and each of the compound curves was determined by entering the counting data into a four parameter sigmoidal computer program (RiaSmart® Immunoassay Data Reduction Program, Packard Instrument Co., Meriden, Conn.). Relative binding affinity (RBA) for each compound was calculated using the following equation: EC50 of standard/EC50 of test compound×100. The standards for the PR and GR assays were unlabeled progesterone and dexamethasone, respectively. The results of these experiments are summarized in Table 1, as a ratio of the relative binding affinities of each compound for the rbPR and rbGR receptors (rbPR/rbGR).
# [4] = Estrogenic, androgenic, anti-estrogenic and anti-androgenic activities
# [5] = Serum corticosterone in rats; conditions: for differences in serum corticosterone between groups: CDB-4124 10 or 20 mg/kg, RU 486 10 mg/kg, progesterone 10 mg/kg
# [6] = test system: Cynomolgus monkey endometrial epithelium, uterus stroma and breast; assay: TUNEL apoptosis in cynomolgus monkey tissue; format: in vivo, Cynomolgus monkeys (Macaca fascicularis); conditions: week 36, percent apoptotic cells
# Experimental: Apoptosis was assessed in tissue from the same animals on slides by the terminal deoxynucleotidyl transferase mediated dUTP-biotin nick end labeling (TUNEL) technique.
# [7] = Urinary progesterone levels (luteal phase) in cynomolgus monkeys; format: in vivo, Cynomolgus monkeys (Macaca fascicularis); conditions: n=14 per group; CDB-4124 or RU-486 oral 1.0 mg/kg/day for 36 weeks; Lupron IM once per month
# Experimental: (§1) Cynomolgus monkeys (Macaca fascicularis) (n=14) were treated orally for 36 weeks with CDB-4124 or RU-486 at 1.0 mg/kg/day or with placebo (control). Another group (n=14) received Lupron® IM once per month. Urinary progesterone levels were measured for each animal for one month during the middle of the study (weeks 14-17) and for the last month of the study (weeks 33-36).
# [8] = test system: Cynomolgus monkey endometrial epithelia, uterus stroma and breast; assay: BrdU incorporation, tissue proliferation in cynomolgus monkeys; format: in vivo, Cynomolgus monkeys (Macaca fascicularis); conditions: week 36, % cells positive for incorporation of BrdU, three animals per group
# Experimental: At week 36, three animals from each group of Example 6 were injected within 24 hours of sacrifice with the thymidine analog bromodeoxyuridine (BrdU), a marker of proliferating cells and their progeny, to assess tissue proliferation. Full thickness uterine sections were stained and examined microscopically for evidence of proliferation in terms of the % cells positive for incorporation of BrdU: […]
# [9] = Urinary estrogen levels (follicular phase) in cynomolgus monkeys; format: in vivo, Cynomolgus monkeys (Macaca fascicularis); set-up: Urinary estrogen, follicular phase, Mean: unit not given here; conditions: for Urinary estrogen, follicular phase, Mean: CDB-4124 or RU-486 oral 1.0 mg/kg/day, Lupron IM once per month
# Experimental: as §1, with “33-36). The results are presented below:” for “33-36).”
# Urinary estrogen levels were measured for each animal of Example 6 for one month during the middle of the study (weeks 14-17) and for the last month of the study (weeks 33-36). The follicular phase results are based on 35 baseline ovulating cycles.
structure (smiles),measurement,setting,value
"CC(=O)OCC(=O)[C@@]1(OC(C)=O)CCC2C3CCC4=CC(=O)CCC4=C3C(c3ccc(N(C)C)cc3)C[C@@]21C (stereo partly drawn) [CDB-4059, 21-acetoxy-17α-acetoxy-11β-(4 N,N-dimethylaminophenyl)-19-norpregna-4,9-diene-3,20-dione]",levels of serum cortisol versus control group,Serum cortisol in rats,significantly higher
same,anti-glucocorticoid receptor activity / glucocorticoid receptor binding,[1],minimal anti-glucocorticoid receptor activity
same,rabbit Biol. Act.,[2],2.90
same,antiprogestin activity in the rabbit uterus,[2]; in comparison to RU 486 and CDB-2914,strong antiprogestin activity
same,rbPR/rbGR,[3],1.89
same,"estrogenic, androgenic, anti-estrogenic, and anti-androgenic activities",[4],"lack estrogenic, androgenic, anti-estrogenic, and anti-androgenic activities"
"CC(=O)O[C@]1(C(C)=O)CC[C@H]2[C@@H]3CCC4=CC(=O)CCC4=C3[C@@H](c3ccc(N(C)C)cc3)C[C@@]21C [CDB-2914, 17α-acetoxy-11β-(4-N,N-dimethylaminophenyl)-19-norpregna-4,9-dien-3,20-dione, reference compound]",anti-glucocorticoid receptor activity / glucocorticoid receptor binding,[1],moderately active
same,rabbit Biol. Act.,[2],1.00
same,rbPR/rbGR,[3],1.07
CC(=O)[C@H]1CC[C@H]2[C@@H]3CCC4=CC(=O)CC[C@]4(C)[C@H]3CC[C@]12C [progesterone],differences in serum corticosterone between groups,[5],No differences
same,levels of corticosterone in animals treated with exogenous progesterone,"[5]; after 21 days of treatment, p=0.029, not verified at sacrifice",lowered
"CC#C[C@]1(O)CC[C@H]2[C@@H]3CCC4=CC(=O)CCC4=C3[C@@H](c3ccc(N(C)C)cc3)C[C@@]21C [RU 486, 11β-[p-(Dimethylamino)phenyl]-17β-hydroxy-17-(1-propynyl)estra-4,9-dien-3-one]",Breast Apo %,[6],1.2 ± 0.6%
same,Uterus epithelium Apo %,[6],0.5 ± 0.1%
same,Uterus stroma Apo %,[6],0.5 ± 0.1%
same,levels of serum cortisol versus control group,Serum cortisol in rats,no significant difference
same,Decrease in luteal phase progesterone (number of animals),[7],9
same,No decrease in luteal phase progesterone (number of animals),[7],5
same,Breast Brdu-%,[8],0.9 ± 0.3%
same,Uterus epithelium Brdu-%,[8],12.6 ± 1.8%
same,Uterus stroma Brdu-%,[8],3.1 ± 1.0%
same,differences in serum corticosterone between groups,[5],No differences
same,anti-glucocorticoid receptor activity / glucocorticoid receptor binding,[1],moderately active
same,Follicular phase estrogen Lower?,[9]; Week 18,No
same,"Urinary estrogen, follicular phase, Mean",[9]; Week 18,67.4
same,Follicular phase estrogen Lower?,[9]; Week 36,No
same,"Urinary estrogen, follicular phase, Mean",[9]; Week 36,64.8
